How the values were obtained:
Type in all cases: in vivo
[1] = test system: goosegrass (Eleusine indica); assay: Test A1 preemergence, goosegrass
Method in brief: (§1)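 Plants grown in pots of loam/sand mix; preemergence = soil-directed spray on seeded pots, postemergence = spray at 1–2 leaves, height 2–10 cm; test chemicals formulated in non-phytotoxic solvent with surfactant.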

rice (Oryza sativa) = assay: Test B1 flooded paddy test, rice; conditions: 250 g ai/ha, Flood, applied to paddy water, 2-leaf stage, visually evaluated after 10 to 14 days
Source text: A dash (-) response means no test result.

corn (Zea mays) = assay: Test A1 preemergence, corn
Method in brief: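 Seeds were first planted into a blend of loam soil and sand and given a preemergence directed soil spray. In parallel, pots of the same soil were sown for postemergence application once plants reached 2 to 10 cm and the one- to two-leaf stage. Both used surfactant-containing non-phytotoxic solvent formulations.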

[2] = test system: wheat (Triticum aestivum); assay: Test A1 preemergence, wheat
Method in brief: as §1

kochia (Bassia scoparia) = assay: Test A1 postemergence, kochia; conditions: for Plant response rating, Kochia: Postemergence; for Kochia plant response rating: postemergence
Method in brief: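 Herbicidal response was scored on plants treated either preemergence, by directed spray onto soil of a loam–sand blend after sowing, or postemergence on potted plants at the one- to two-leaf stage, 2–10 cm high. Test chemicals were carried in a non-phytotoxic solvent mix with surfactant.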

[3] = 31 g ai/ha, 0 to 100 scale (0 no effect, 100 complete control)
[4] = 125 g ai/ha, 0 to 100 scale, 0 no effect, 100 complete control
[5] = 125 g ai/ha, 0 to 100 scale (0 no effect, 100 complete control), 10 days
[6] = 125 g ai/ha, 0 to 100 scale (0 no effect, 100 complete control)

Row | Structure (SMILES) | Plant response rating, Goosegrass [1, 3] | Plant response rating, Goosegrass [1, 4] | Plant response rating, Rice (0 to 100 scale, 0 is no effect, 100 is complete control) (rice (Oryza sativa)) | Plant response rating, Corn (corn (Zea mays); [3]) | Plant response rating, Corn (corn (Zea mays); [4]) | Plant response rating, Wheat [2, 3] | Plant response rating, Wheat [2, 4] | Plant response rating, Kochia (kochia (Bassia scoparia); 31 g ai/ha, 0 to 100 scale (0 no effect, 100 complete control), 10 days) | Plant response rating, Kochia (kochia (Bassia scoparia); 125 g ai/ha, 0 to 100 scale) | Kochia plant response rating (kochia (Bassia scoparia); [3]) | Plant response rating, Kochia (kochia (Bassia scoparia); [5]) | Plant response rating, Goosegrass [1, 6] | Plant response rating, Wheat [2, 6]
1 | CCOC(=O)N(c1cc(C(=O)N2CCSCC2)c(C)c(C)c1C)S(=O)(=O)C(F)(F)F [Compound 286] | 30 | 90 | 0 | 0 | 0 | 0 | 30 | 20 | 50 |  |  |  | 
2 | Cc1cc(Cl)c(NS(=O)(=O)C(F)(F)F)cc1N1CC2(CCCCC2)OC1=O [Compound 394] | 80 | 100 | 0 | 0 | 20 | 30 | 70 |  |  | 40 | 80 |  | 
3 | Cc1cc(C)c(N(COC(=O)C(C)(C)C)S(=O)(=O)C(F)(F)F)cc1N1CCC2(CCC(C)CC2)C1=O (centres unmarked) [Compound 401] | 0 | 30 | 45 | 0 | 20 | 0 | 0 |  |  | 10 | 30 |  | 
4 | Cc1cc(C)c(N2Cc3cccc(Br)c3C2=O)cc1NS(=O)(=O)Cl [Compound 415] | 90 |  | 10 | 0 | 80 |  |  |  |  | 40 | 70 | 100 | 50
5 | Cc1c(NS(=O)(=O)C(F)(F)F)cc(C2=NOC3(CCCC3)C2)c(C)c1C [Compound 380] | 50 | 100 | 10 | 0 | 30 | 30 | 90 |  |  | 30 | 50 |  | 
6 | Cc1cc(C)c(N(S(=O)(=O)C(F)(F)F)S(=O)(=O)C(F)(F)F)cc1N1CCC2(CCC(C(F)(F)F)CC2)C1=O (centres unmarked) [Compound 399] | 90 | 90 | 0 | 0 | 0 | 0 | 20 |  |  | 30 | 70 |  | 
7 | C#CCN(C)C(=O)c1cc(N(COC(=O)C(C)(C)C)S(=O)(=O)C(F)(F)F)c(C)c(C)c1C [Compound 371] | 0 | 90 | 10 | 0 | 90 | 0 | 10 |  | 70 | 40 |  |  | 
8 | CCC1CC(c2cc(N(COC(=O)C(C)(C)C)S(=O)(=O)C(F)(F)F)c(C)cc2C)=NO1 (centres unmarked) [Compound 376] | 50 | 100 | 20 | 0 | 0 | 0 | 20 |  | 50 | 0 |  |  | 
9 | CCOC(=O)N(c1cc(C2=NOC3CCCC23)c(CC)cc1C)S(=O)(=O)C(F)(F)F (centres unmarked) [Compound 379] | 20 | 90 | 0 | 0 | 0 | 0 | 30 |  | 40 | 0 |  |  | 

Source: US20230278972A1, “SUBSTITUTED HALOALKYL SULFONANILIDE HERBICIDES” (FMC Corporation, priority 2020, published 2023)
